One block for each compound: values may come before it.
What was measured:
[1] = Drug depot below Tenon's capsule vs below the conjunctiva, retinal drug concentration; assay type: in vivo, New Zealand White rabbits; conditions: depot on outer surface of the sclera below Tenon's capsule; measured the day after the injection; rabbit eyes
Source text: The sclera and Tenon's capsule define the exterior surface of the globe of the eye. For treatment of ARMD, CNV, retinopathies, retinitis, uveitis, cystoid macular edema (CME), glaucoma, and other diseases or conditions of the posterior segment of the eye, it is preferable to dispose a depot of a specific quantity of an ophthalmically acceptable pharmaceutically active agent directly on the outer surface of the sclera and below Tenon's capsule. In addition, in cases of ARMD and CME it is most preferable to dispose the depot directly on the outer surface of the sclera, below Tenon's capsule, and generally above the macula. In a study using New Zealand White rabbits, a drug depot of 4,9(11)-Pregnadien-17α,21-diol-3,20-dione-21-acetate, an angiostatic steroid available from Steraloids, Inc. of Wilton, N.H., was disposed directly on the outer surface of the sclera, below the Tenon's capsule, and slightly posterior of the equator of the rabbit eyes. […] Given the fact that the Tenon's capsule of a New Zealand White rabbit is very thin, these beneficial results are highly unexpected. It is important to note that Tenon's capsule of the human eye is also very thin. […]

[2] = Sucrose effect on content uniformity in the ready to use (RTU) composition; assay type: physicochemical; conditions: ready to use composition made with sucrose from different vendors, FIG. 2
Source text: The concentrated sterile aqueous composition preferably comprises sucrose. The concentrated sterile aqueous composition comprises sucrose in an amount sufficient to form a stable aqueous composition of pharmaceutical agent represented by formula 1, typically about 40 to 80 weight percent sucrose based on the total weight of the composition. The concentrated sterile aqueous composition comprises sucrose in an amount ranging from a lower limit of 40, 45, 50, 55 or 60 or 65 weight percent, based on the total weight of the composition, to an upper limit of 70 or 75 or 80 weight percent, based on the total weight of the composition, with ranges from any upper limit to any lower limit being contemplated.
FIG. 2 illustrates the sucrose effect on content uniformity in the ready to use (RTU) composition.
The vertical bars represent 95% Confidence Interval.

[3] = Stability of the drug substance to light, room temperature and irradiation; assay type: physicochemical
Source text: The pharmaceutical agent is stable following gamma irradiation at 25 kGy and is stable following e-beam irradiation at 25 kGY. The particle size distribution, calculated by means well known in the art, following jet-milling (in microns) is as follows: […]

[4] = Particle size distribution following jet-milling; assay type: physicochemical
Source text: The pharmaceutical agent is stable following gamma irradiation at 25 kGy and is stable following e-beam irradiation at 25 kGY. The particle size distribution, calculated by means well known in the art, following jet-milling (in microns) is as follows:
d10=0.5; d50=1.5; and d90=3.5; wherein for example, d50 represents 50% of the pharmaceutical agent is 1.5 microns or less in size.

concentration of the angiostatic steroid, averaged over the entire retina, relative to a depot below the conjunctiva but above the Tenon's capsule [1]: about ten times greater
Compound: CC(=O)OCC(=O)[C@@]1(O)CC[C@H]2[C@@H]3CCC4=CC(=O)CC[C@]4(C)C3=CC[C@@]21C [4,9(11)-Pregnadien-17α,21-diol-3,20-dione-21-acetate]

content uniformity [2]: best content uniformity
Compound: OC[C@H]1O[C@@](CO)(O[C@H]2O[C@H](CO)[C@@H](O)[C@H](O)[C@H]2O)[C@@H](O)[C@@H]1O [Sigma, S3929 Lot 101K0105, sucrose]

light sensitivity ([3]; drug substance): light insensitive | stability following e-beam irradiation ([3]; e-beam irradiation at 25 kGY): stable | stability following gamma irradiation ([3]; gamma irradiation at 25 kGy): stable | stability at room temperature ([3]; room temperature): stable | particle size d10 [4]: 0.5 microns | particle size d50 [4]: 1.5 microns | particle size d90 [4]: 3.5 microns
Compound: Cc1cc(C(=O)Nc2cc(Nc3ccc4c(/C=C/c5ccccn5)n[nH]c4c3)ccc2F)n(C)n1 [pharmaceutical agent 1]
